From US12685725B2, “Pridopidine for the treatment of mitochondrial-associated diseases and disorders and endoplasmic reticulum (ER) stress” (PRILENIA NEUROTHERAPEUTICS LTD., priority 2019, dated 2026)

Key:
[1] = tested on: HD-NSCs; experiment: cells; settings: Homo sapiens, 24 h, read-out: reduction of the increase in H2O2 levels induced by complex III inhibition
Description: NSCs were plated at 30,000 cells/well in 96-well assay plates coated with Geltex® for 24 h at 37° C. Afterwards, NSCs were incubated for another 24 h with 1 μM pridopidine. […] MitoPY1 fluorescence was obtained with a Microplate Spectrofluorometer Gemini EM (Molecular Devices, USA) using wavelength parameters described above. Basal levels were measured for 10-15 minutes followed by exposure to 3 μM myxothiazol (mitochondrial complex III inhibitor. Sigma-Aldrich, catalog no: T5580) and measured for an additional 30 minutes. The results were calculated as RFU per 30,000 cells.

[2] = tested on: WT and YAC128 striatal neurons
Description: Briefly, plasmid was diluted in TE (in mM: 1 Tris-HCl pH 7.3, 1 mM EDTA), followed by the addition of CaCl2 (in mM: 2.5 CaCl2 in 10 HEPES, pH 7.2). The DNA solution was carefully added to 2×HEBS (in mM: 12 dextrose, 50 HEPES, 10 KCl, 280 NaCl and 1.5 Na2HPO4·2H2O, pH 7.2) while bubbling air through the solution. The mixture was then incubated for 25 min at room temperature. The precipitates were added dropwise to the coverslips in Neurobasal medium and incubated for 80 minutes at 37° C. The DNA-Ca^2+-phosphate precipitates were dissolved with freshly-made dissolution medium (Neurobasal medium with 20 mM HEPES, pH 6.8) and incubated for 7 min at room temperature. The transfected neurons were then washed with Neurobasal medium and transferred back to their original dishes containing conditioned culture medium until DIV12.
MitoDsRed-transfected striatal neurons were fixed with 4% paraformaldehyde (pre-warmed at 37° C.) for 20 minutes, permeabilized in 0.2% Triton X-100 in PBS for 2 minutes and blocked for 1 hour at room temperature in 3% (w/v) BSA in PBS. […] Confocal images were obtained as stacks, at 0.46 μm intervals along the z axis, using a Plan-Apochromat/1.4NA 63× lens on an Axio Observer.Z1 confocal microscope (Zeiss Microscopy, Germany) with Zeiss LSM 710 software. FIJI (ImageJ, National Institute of Health, USA) was used for image analysis. […] To optimally resolve individual mitochondria, a threshold was applied followed by the Analyze Particles function to trace mitochondrial outlines. For S1R and IP3R3 fluorescence, a threshold was set similarly to the one described above, and Integrated Density was obtained. S1R and IP3R3 Integrated Density was calculated inside of mitochondrial ROIs selection to obtain ER co-localization with mitochondria.

[3] = tested on: S1R/BiP colocalization in NIH 3T3 cells
Description: Colocalization of S1R and mitochondria was assessed in NIH 3T3 cells expressing WT myc-Htt20Q or mutant myc-Htt96Q. Cells were then fixed, permeabilized and reacted with mouse anti-myc and rabbit anti-S1R. Images were pseudo-colored to better visualize the colocalization of S1R and MitoTracker.
(§1) Transfections of HEK 293 cells were carried out according to the calcium phosphate method. STHdh^Q7/7 cells are a murine striatal cell line with a stable knock-in of the full-length wild type (WT) human Htt containing a polyglutamine stretch of 7 glutamines (Trettel et al. 2000). […] No cell line used is listed as a commonly misidentified cell line. Cell lines were not authenticated. To reduce any risk of cross-contamination they were grown for a limited number of passages. Transient transfections of NIH 3T3 and STHdh^Q7/7 cells were performed using an MP-100 Microporator (Digital Bio) or ViaFect™ Transfection Reagent (Cat.No. E4981) (Promega), according to the manufacturer's protocols.
(§2) Briefly, cells grown for 24 h after transfection on coverslips in 24-well plates were fixed with 3% paraformaldehyde, followed by blocking with 50 mM glycine in PBS and normal goat IgG in PBS/2% BSA. The cells were incubated with primary antibodies for 1 h, washed and incubated for 30 min with secondary antibodies, followed by washes. Nuclei were stained with 4′,6-diamidino-2-phenylindole (Cat.No. F6057) (Sigma). Confocal microscopy was done on a Zeiss laser scanning confocal microscope (LSM 510; Carl Zeiss, Jena, Germany) as described previously. ImageJ was used to quantify fluorescence intensity in images of treated individual cells compared to untreated cells with and without Htt96Q-mCherry aggregates and to calculate Mander's coefficients for colocalization studies.

[4] = target: S1R in STHdh^Q7/7 cells (Mus musculus, UniProt O55242); settings: 20 h; P (150 μM vs. 0)<0.05
S1R in STHdh^Q7/7 cells (Mus musculus, UniProt O55242), sequence (O55242 whole entry): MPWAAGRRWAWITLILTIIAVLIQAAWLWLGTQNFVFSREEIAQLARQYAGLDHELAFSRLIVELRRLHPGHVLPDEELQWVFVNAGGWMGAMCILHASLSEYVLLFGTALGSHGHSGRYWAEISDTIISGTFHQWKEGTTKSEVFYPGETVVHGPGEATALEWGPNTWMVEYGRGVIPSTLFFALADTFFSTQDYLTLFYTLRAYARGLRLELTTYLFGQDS
Description: as §1
(§3) Cells were lysed in PBS containing 1% Triton X-100, 0.5% sodium deoxycholate with protease inhibitors and centrifuged to pellet insoluble aggregates, debris and nuclei. Phosphatase inhibitor cocktail 2 and 3 and 10 mM […] phosphate were added to the lysis buffer to inhibit phosphatases for detection of phosphorylated proteins. Supernatants were separated from pellets and incubated in loading buffer for 5 min at 100° C., pellets were incubated for 10 min at 100° C. After SDS-PAGE and transfer to nitrocellulose membrane, blocking was done in 5% low-fat milk and 0.1% Tween-20 in PBS for 1 h. Incubation with the primary antibody was overnight at 4° C. and after three washes in 0.1% Tween-20 in PBS, incubation with the appropriate secondary antibody was for 1 h at room temperature. After washing, enhanced chemiluminescence assay was performed and the membrane was exposed and quantified in a Bio-Rad ChemiDocXRS Imaging System (Bio-Rad, Hercules, CA).
as §2

[5] = tested on: S1R in STHdh^Q7/7 cells
Description: as §1, §3, §2

[6] = tested on: S1R-silenced HD lymphoblasts; settings: 5 μM, 24 h
Description: S1R depletion was induced by treating with S1R-directed siRNA duplexes (Origene, cat no: SR426072). siRNA transfection was performed in antibiotic-free growth medium using the Polyplus JETPRIME transfection protocol as per manufacturer's instructions (Polyplus). Forty-eight hours after transfection the cells were subjected to pridopidine treatment and/or oxidative stress challenge. S1R knockdown efficiency was determined by Immunoblot analysis.
TMRE assay: Primary neurons and lymphoblasts in suspension were cultured in 6-well plates.

[7] = YAC128 striatal neurons, 1 μM, 24 h

CCCN1CCC(c2cccc(S(C)(=O)=O)c2)CC1 [Pridopidine, 4-[3-(methylsulfonyl)phenyl]-1-propyl-piperidine]
inhibition at 1 µM [1]: ~42%
S1R co-localization with mitochondria ([2]; Y128 neurons, 1 μM, 24 h, p<0.0001): increase in IP3R and S1R co-localization with mitochondria
IP3R co-localization with mitochondria ([2]; Y128 neurons, 1 μM, 24 h, p=0.0001): increase in IP3R and S1R co-localization with mitochondria
total S1R protein levels ([2]; Y128 striatal neurons): restores S1R levels to WT levels
S1R total levels in neurites [2, 7]: significantly increases S1R levels
S1R total levels in soma [2, 7]: significantly increases S1R levels
S1R/BiP colocalization ([3]; cells expressing Htt20Q): does not affect S1R/BiP colocalization
S1R/BiP colocalization (BiP-RFP) ([3]; cells expressing Htt96Q aggregates, 150 μM): restores S1R/BiP colocalization in cells expressing Htt96Q aggregates to normal, unstressed levels
colocalization of S1R and BiP-GFP ([3]; cells expressing myc-Htt96Q, 150 μM): shows a trend towards increasing colocalization
Triton-insoluble levels of endogenous S1R [4]: also those of the endogenous S1R
Triton-insoluble levels of S1R-YFP ([5]; 20 h, starting 4 h post-transfection): increases the Triton-insoluble levels of S1R-YFP
increase of S1R-YFP levels above the levels in the untreated cells ([5]; in the presence of Htt96Q-mCherry, dose-dependent, up to 150 μM, 20 h): up to 47%
pattern (subcellular localization) of S1R-YFP ([5]; treatment for 20 h): does not change the pattern of S1R-YFP
mitochondrial membrane potential signal after H2O2 stimulation ([6]; S1R+/+ cells): increases TMRM signal after H2O2 stimulation
effect on mitochondrial membrane potential ([6]; absence of the S1R (silenced ~83%), p<0.0001): abolished
